From publication PMC8745299, “Generation of Lasso Peptide-Based ClpP Binders” (International Journal of Molecular Sciences, 2021)
“And” between values parts separate entries of the source, which are not always exact repeats. Equal entries are not always repeated. Where two headings read alike, the source gives them in different places. Bridge positions count the residues as written; N and C are the ends. Square brackets hold non-standard residues; d marks the D form. Ends that are not written are not given here. Peptide text beside a SMILES is read from it. * marks the point of attachment. Phe(3,5-F2) = N[C@@H](Cc1cc(F)cc(F)c1)C(=O)O; Pro(4R-Me) = C[C@H]1CN[C@H](C(=O)O)C1; Propanoyl(3-cHex) = O=C(CCC1CCCCC1)*; NMeA = CN[C@@H](C)C(=O)O

How the values were obtained:
BsClpP (monomer) = molecular target: T1, BsClpP (monomer) (Bacillus subtilis, UniProt P80244); test: Peptidase activity of BsClpP, predominantly monomeric preparation; type: biochemical, B. subtilis
T1 construct: His-tag (C); made in house; host or cells: E. coli BL21 (DE3)
Description: (§1) Peptide degradation assays were performed in black flat-bottom 96-well plates with a total reaction volume of 100 μL and reaction temperatures of 32 °C and 37 °C for SaClpP and BsClpP, respectively. Stock solutions of ADEP2 and MccJ25 WT or variants were dissolved in DMSO and pre-diluted to 100× of the final concentration. Accordingly, 1 μL of the respective stock solution was placed at the bottom of the wells. […] 50 μL of a 2× enzyme solution (final assay concentration: 1 μM) in activity buffer was added to the plate and incubated for 15 min at 32 °C and 37 °C for SaClpP and BsClpP activity assays, respectively. The enzyme reaction was started by addition of 49 μL of a solution of the fluorogenic model peptide substrate Suc-Leu-Tyr-AMC in activity buffer at a final concentration of 200 μM. For SaClpP assays, the activity buffer was comprised of 100 mM NaCl and 100 mM HEPES at pH 7. […] The fluorescence read-out was measured using a Tecan (Crailsheim, Germany) M200Pro plate reader (excitation/emission: 380/460 nm) every 30–60 s for 1 h. Enzyme velocity was determined by linear regression of the initial segment of the fluorescence-time plot in GraphPad Prism 5 (GraphPad Software, San Diego, CA, USA). […]

BsClpP tetradecamer = molecular target: T2, BsClpP tetradecamer (Bacillus subtilis, UniProt P80244); test: Peptidase activity of pre-purified tetradecameric BsClpP; type: biochemical, B. subtilis; details: read-out: EC50, BsClpP14 peptidase activity
T2 construct: His-tag (C); made in house; host or cells: E. coli BL21 (DE3)
Description: as §1

BsClpP = molecular target: T3, BsClpP (Bacillus subtilis, UniProt P80244); test: BsClpP peptidase activity, preparation not specified; type: biochemical, B. subtilis
T3 construct: His-tag (C); made in house; host or cells: E. coli BL21 (DE3)
Description: (§2) Peptide degradation assays were performed in black flat-bottom 96-well plates with a total reaction volume of 100 μL and reaction temperatures of 32 °C and 37 °C for SaClpP and BsClpP, respectively. Stock solutions of ADEP2 and MccJ25 WT or variants were dissolved in DMSO and pre-diluted to 100× of the final concentration. Accordingly, 1 μL of the respective stock solution was placed at the bottom of the wells. […] 50 μL of a 2× enzyme solution (final assay concentration: 1 μM) in activity buffer was added to the plate and incubated for 15 min at 32 °C and 37 °C for SaClpP and BsClpP activity assays, respectively. The enzyme reaction was started by addition of 49 μL of a solution of the fluorogenic model peptide substrate Suc-Leu-Tyr-AMC in activity buffer at a final concentration of 200 μM. For SaClpP assays, the activity buffer was comprised of 100 mM NaCl and 100 mM HEPES at pH 7. BsClpP activity buffer (50 mM Tris-HCl, 25 mM MgCl2, 200 mM KCl, 2 mM DTT, pH 8) was used in BsClpP assays as well as in SaClpP experiments, where the buffer composition was supposed to lead to oligomeric breakdown of the SaClpP tetradecamer to allow testing the activity retaining effect of ClpP agonists. The fluorescence read-out was measured using a Tecan (Crailsheim, Germany) M200Pro plate reader (excitation/emission: 380/460 nm) every 30–60 s for 1 h. Enzyme velocity was determined by linear regression of the initial segment of the fluorescence-time plot in GraphPad Prism 5 (GraphPad Software, San Diego, CA, USA). All assays were performed in triplicate and repeated at least two times.

SaClpP [1] = molecular target: T4, SaClpP (Staphylococcus aureus, UniProt Q2G036); test: Peptide (Suc-LY-AMC) degradation by SaClpP in destabilizing Tris buffer pH 8; type: biochemical, S. aureus; design: Strep-tag (C); made in house; host or cells: E. coli BL21 (DE3)
T4 sequence (Q2G036 1-195): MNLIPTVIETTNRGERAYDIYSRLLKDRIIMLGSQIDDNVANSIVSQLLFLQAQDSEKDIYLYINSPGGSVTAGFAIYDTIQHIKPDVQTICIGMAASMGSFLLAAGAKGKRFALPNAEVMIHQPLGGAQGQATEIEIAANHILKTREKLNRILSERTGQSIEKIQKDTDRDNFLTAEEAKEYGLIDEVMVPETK
Description: (§3) In order to assess the different MccJ25 variants, we first chose S. aureus ClpP (SaClpP) as a model peptidase and performed in vitro degradation assays with the fluorogenic model peptide substrate Suc-LY-AMC. […] To investigate whether the MccJ25 variants can exert a stabilizing effect on the oligomeric structure of tetradecameric SaClpP, we conducted peptide degradation assays under destabilizing conditions employing a Tris buffer at pH 8.
This experimental setup was then used to differentiate the MccJ25 variants regarding their effect on ClpP stability. […] The apparent affinity constant was deduced from enzyme activity assays and represents the effector molecule concentration at half maximal stimulation of enzyme activity (the lower the apparent affinity constant, the higher the affinity). To exclude that 12IGF serves as a SaClpP substrate, we incubated a mixture of SaClpP and 12IGF under assay conditions for up to 260 min.
as §2

SaClpP [2] = molecular target: T4, SaClpP; test: Peptide (Suc-LY-AMC) degradation by SaClpP in HEPES buffer pH 7; type: biochemical, S. aureus; design: Strep-tag (C); made in house; host or cells: E. coli BL21 (DE3); details: Figure 4A
Description: as §3
as §1, with “respectively.” for “respectively. The enzyme reaction was started by addition of 49 μL of a solution of the fluorogenic model peptide substrate Suc-Leu-Tyr-AMC in activity buffer at a final concentration of 200 μM. For SaClpP assays, the activity buffer was comprised of 100 mM NaCl and 100 mM HEPES at pH 7.”

SaClpP [3] = molecular target: T4, SaClpP; test: Analytical gel filtration, SaClpP oligomeric state; design: Strep-tag (C); made in house; host or cells: E. coli BL21 (DE3); details: Superdex 200, Tris buffer pH 8, representative experiment from three repetitions
SaClpP [4] = molecular target: T4, SaClpP; test: biochemical; design: Strep-tag (C); made in house; host or cells: E. coli BL21 (DE3)
Description: Casein degradation assays were performed analogous to peptide degradation assays. Fluorescein-labelled casein (FITC-casein) was employed at final concentrations of 20 μM in the respective activity buffers (see peptide degradation assay). 1 μL of a 100× stock solution of ADEP2 in DMSO was placed at the bottom of the wells followed by the addition of a 2× SaClpP or BsClpP enzyme solution (1 μM final concentration, unless noted otherwise). The mixture was incubated at 32 °C or 37 °C for 15 min and then the reaction was started by the addition of a 2× FITC-casein solution in the corresponding activity buffer. The fluorescence read-out was measured using a Tecan (Crailsheim, Germany) M200Pro plate reader employing an excitation wavelength of 485 nm and an emission wavelength of 535 nm. Enzyme velocity was acquired by linear regression of the initial segment of the fluorescence graph and plotted against ADEP2 concentration. All assays were performed in duplicate or triplicate.

SaClpP [5] = molecular target: T4, SaClpP; design: Strep-tag (C); made in house; host or cells: E. coli BL21 (DE3); details: ADEP2 vs natural product ADEP1; ref not given; cited from earlier work
Description: Figure 3 Grafting of the hydrophobic tripeptide binding motifs onto the MccJ25 lasso peptide scaffold. (A) Schematic of the ClpP tetradecamer and the complete Clp protease complex, i.e., ClpP in concert with ClpX. The interaction between ClpP and the ClpX ATPase occurs between protruding flexible loops of ClpX, carrying the conserved tripeptide motif (L/I/V)-G-(F/L), and the H-pockets of ClpP. The H-pockets are located between two adjacent monomers of ClpP. In the ClpXP complexes of S. aureus and B. subtilis, which we used for our biochemical assays, the respective motif is IGF. (B) The IGF tr ...

[6] = molecular target: B. subtilis ClpP (Bacillus subtilis) (UniProt P80244); test: SEC; BsClpP purified under specific buffer conditions that favor tetradecamer assembly; tetradecameric fraction collected from a gel filtration column (buffers in ref. 43)
[7] = system: ClpPs from different organisms; details: fully assembled ClpX hexamer; cited from earlier work
Description: ClpX carries six coupled IGF motifs in a rather favorable orientation.

[8] = cited from earlier work
Description: MccJ25 is exceptionally stable, even for lasso peptide standards.

Enterobacteriaceae = details: cited from earlier work
Description: (§4) Microcin J25 (MccJ25) is the most well-studied lasso peptide (Figure 2A). […] MccJ25 enters its target cells through hijacking the TonB-dependent siderophore receptor FhuA [8, 19, 20] which explains its narrow activity spectrum. MccJ25 originates from Escherichia coli AY25 [13] and thus can be produced very well heterolo ...

[9] = system: Gram-negative RNA polymerase; details: blocking of NTP uptake channel; cited from earlier work
Description: as §4

thermolysin = details: cleavage e.g. between Phe10 and Val11; gas phase and solution; cited from earlier work
[10] = molecular target: T5, S. aureus ClpP (Staphylococcus aureus), Q2G036; test: SEC; analytical gel filtration, Superdex 200 3.2 Increase; SaClpP in Tris buffer pH 8 (50 mM Tris-HCl, 25 mM MgCl2, 200 mM KCl, 2 mM DTT) with 12IGF; details: remark: other sources report otherwise
T5 chain: T4 sequence (Q2G036 1-195)

[11] = molecular target: T5, S. aureus ClpP (Staphylococcus aureus), …; test: SEC; analytical gel filtration, Superdex 200 3.2 Increase; SaClpP in Tris buffer pH 8 (50 mM Tris-HCl, 25 mM MgCl2, 200 mM KCl, 2 mM DTT) with ADEP2; details: remark: other sources report otherwise
[12] = molecular target: T5, S. aureus ClpP (Staphylococcus aureus), …; test: SEC; analytical gel filtration, Superdex 200 3.2 Increase; SaClpP diluted 10x in BsClpP activity buffer (50 mM Tris-HCl, 25 mM MgCl2, 200 mM KCl, 2 mM DTT, pH 8), no effector; details: remark: other sources report otherwise
[13] = molecular target: T5, S. aureus ClpP (Staphylococcus aureus), …; test: SEC; gel filtration of apo-SaClpP in HEPES buffer, pH 7 (purification: Superdex 200 HiLoad 16/600, 100 mM NaCl, 20 mM HEPES, pH 7; analytical: Superdex 200 3.2 Increase, 100 mM HEPES, 100 mM NaCl, pH 7); details: remark: other sources report otherwise

T3 sequence (P80244 whole entry): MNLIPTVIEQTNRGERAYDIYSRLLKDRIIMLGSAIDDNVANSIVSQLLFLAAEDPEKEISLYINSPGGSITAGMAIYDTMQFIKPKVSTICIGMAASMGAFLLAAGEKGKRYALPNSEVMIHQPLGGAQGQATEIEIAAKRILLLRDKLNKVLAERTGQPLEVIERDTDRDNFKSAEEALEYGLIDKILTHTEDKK
T1 sequence (P80244 whole entry): as above
T2 sequence (P80244 whole entry): as above

## CC[C@H](C)[C@H](NC(=O)[C@@H](NC(=O)[C@H](Cc1ccccc1)NC(=O)[C@H](Cc1ccc(O)cc1)NC(=O)[C@@H]1CCC(=O)NCC(=O)NCC(=O)N[C@@H](C)C(=O)NCC(=O)N[C@@H](Cc2c[nH]cn2)C(=O)N[C@@H](C(C)C)C(=O)N2CCC[C@H]2C(=O)N1)C(C)C)C(=O)NCC(=O)N[C@@H](Cc1ccccc1)C(=O)N[C@H](C(=O)N1CCC[C@H]1C(=O)N[C@H](C(=O)N[C@@H](CO)C(=O)N[C@@H](Cc1ccccc1)C(=O)N[C@@H](Cc1ccc(O)cc1)C(=O)NCC(=O)O)[C@@H](C)CC)[C@@H](C)O [12IGF] (GGAGHVPEYFVIGFTPISFYG-OH; lactam N-8)
BsClpP (monomer); 5 μM ADEP2, Tris pH 8, 37 °C, ± S.D., two separate experiments, read-out: EC50, BsClpP1 peptidase activity (+ADEP2)
  EC50: 60.2 ± 3.78 µM
BsClpP (monomer); with ADEP2 (Figure 5C), Tris pH 8, 37 °C, read-out: apparent affinity constant, BsClpP activation in the presence of ADEP2
  EC50: 60 µM
BsClpP tetradecamer
  EC50: 60.3 ± 12.1 µM
BsClpP; 12IGF EC50 in SaClpP and BsClpP peptidase assays vs EC50 values measured for ADEP
  EC50 relative to ADEP: exceeded the EC50 values measured for ADEP by one to two orders of magnitude
BsClpP; Figure 5C,D, with or without ADEP2 not specified, 37 °C
  EC50: 60 µM
SaClpP [1]; Tris buffer pH 8, 1 μM SaClpP, 200 μM Suc-Leu-Tyr-AMC, 32 °C, 15 min pre-incubation, fluorescence 380/460 nm, ± S.D., three independent experiments, read-out: EC50, stabilizing effect on SaClpP peptidase activity
  EC50: 26 ± 3.32 µM
SaClpP [1]; Tris buffer pH 8, effector concentration at half maximal stimulation of enzyme activity, 32 °C, Suc-Leu-Tyr-AMC, read-out: apparent affinity constant, stabilizing effect on SaClpP peptidase activity
  EC50: ~26 µM and 26 µM

## C[C@@H]1C[C@H]2C(=O)OC[C@H](NC(=O)[C@H](Cc3cc(F)cc(F)c3)NC(=O)CCC3CCCCC3)C(=O)N3CCC[C@H]3C(=O)N(C)[C@@H](C)C(=O)N[C@@H](C)C(=O)N2C1 [ADEP2] ({Propanoyl(3-cHex)}-[Phe(3,5-F2)]SP[NMeA]A[Pro(4R-Me)]; ester 2-C)
SaClpP [1]; Tris buffer pH 8, Figure 4A
  SaClpP peptidase activity retained in the presence of ADEP2: a substantial extent of the original activity (observed in the favorable HEPES buffer at pH 7) was retained in the presence of ADEP2
SaClpP [2]
  SaClpP peptidase activity enhancement: enhanced weakly
SaClpP [3]
  SaClpP tetradecamer integrity: Inactivation by oligomeric breakdown in Tris buffer at pH 8 can be circumvented by the addition of ADEP2
SaClpP [4]
  EC50: 0.304 ± 0.179 µM
SaClpP [5]
  affinity for SaClpP: increased affinity for SaClpP

## B. subtilis ClpP (from UniProt P80244 1-197) (enzyme)
[6]
  stoichiometry N: 14

## ClpX: Clp-ATPase ClpX hexamer carrying six coupled IGF motifs
[7]
  ClpP affinity relative to ADEP2: weaker affinities than ADEP2

## microcin J25 (GGAGHVPEYFVGIGTPISFYG; lactam N-8; also: lasso topology, tail threaded through ring) [WT MccJ25, wild type lasso peptide from Escherichia coli AY25]
BsClpP; summary in discussion
  effect on BsClpP activity: neither WT MccJ25 nor several of the other mutated variants constructed in this study affected either of the ClpPs
[8]
  thermal stability: withstand autoclaving at 120 °C
Enterobacteriaceae
  antibiotic activity: exhibits antibiotic activity against Enterobacteriaceae
[9]
  RNA polymerase inhibition: inhibition of the Gram-negative RNA polymerase
thermolysin
  stability of [2]rotaxane after loop hydrolysis by thermolysin: does not cause ring and tail to dissociate
SaClpP [1]; Tris buffer pH 8, 46 μM lasso peptide (Figure 4C), 32 °C, three independent experiments
  SaClpP peptidase activity retained in Tris buffer: only the three variants carrying the canonical tripeptide motif at positions 12–14 were able to retain SaClpP activity in Tris buffer
SaClpP [1]; summary in discussion
  effect on SaClpP activity: neither WT MccJ25 nor several of the other mutated variants constructed in this study affected either of the ClpPs

B1: S. aureus ClpP, Q2G036 1-195 (enzyme)
chain: T4 sequence (Q2G036 1-195)
[10]
  stoichiometry N: 14
[11]
  stoichiometry N: 14
[12]
  stoichiometry N: 7
[13]
  stoichiometry N: 14
